Source: US20080194585A1, “Fungicidal Pyrazine Derivatives” (priority 2005, published 2008)

Experiments:
Conditions in all cases: 200 ppm; 100 = 100% disease control, 0 = no control
Plasmopara viticola = test: Test D: grape downy mildew, spray after inoculation of grape seedlings; assay type: in vivo
Description: Upon removal, disease ratings were made. […] A dash (-) indicates no test results.

Phytophthora infestans = test: whole plant or invertebrate; assay type: in vivo
Septoria tritici = test: Test J: wheat leaf blotch, preventive spray on wheat seedlings; assay type: in vivo
Description: A dash (-) indicates no test results.

fusarium graminearium = test: Test I: wheat head scab, preventive spray on wheat seedlings
Description: (the causal agent of wheat head scab) and incubated in a saturated atmosphere at 20° C. for 72 h, and then moved to a growth chamber at 22° C. for 5 days, after which disease ratings were made.

[1] = system: Puccinia recondita f. sp. tritici; test: Test K: wheat leaf rust, preventive spray on wheat seedlings
Botrytis cinerea = test: Test E: tomato botrytis, preventive spray on tomato seedlings
Septoria nodorum = test: Test H: wheat glum blotch, preventive spray on wheat seedlings
Description: (the causal agent of wheat glum blotch) and incubated in a saturated atmosphere at 20° C. for 48 h, and then moved to a growth chamber at 22° C. for 5 days, after which disease ratings were made.

[2] = system: Erysiphe graminis f. sp. tritici; test: Test L: wheat powdery mildew, preventive spray on wheat seedlings
Sclerotinia sclerotiorum = test: Test C: cucumber white mold, preventive spray on cucumber seedlings
Pythium aphanidermatum = test: Test A: bluegrass pythium blight, preventive spray on bluegrass seedlings
Rhizoctonia oryzae = test: Test G: turf brown patch, preventive spray on creeping bent grass seedlings
Description: (the causal agent of turf brown patch) and incubated in a saturated atmosphere at 27° C. for 24 h, and then moved to a growth chamber at 27° C. for 5 days, after which disease ratings were made.

[3] = system: Colletotrichum orbiculare; test: Test B: cucumber Colletotrichum anthracnose, preventive spray on cucumber seedlings

| SMILES | Test D disease control rating (Plasmopara viticola) | Test F disease control rating (Phytophthora infestans) | Test J disease control rating (Septoria tritici) | Test I disease control rating (fusarium graminearium) | Test K disease control rating [1] | Test E disease control rating (Botrytis cinerea) | Test H disease control rating (Septoria nodorum) | Test L disease control rating [2] | Test C disease control rating (Sclerotinia sclerotiorum) | Test A disease control rating (Pythium aphanidermatum) | Test G disease control rating (Rhizoctonia oryzae) | Test B disease control rating [3] |
| --- | --- | --- | --- | --- | --- | --- | --- | --- | --- | --- | --- | --- |
| CC(C)Cn1c(C2CCCC2)c(Cl)nc(-n2cccn2)c1=O [compound 290] | 0% | 0% | 100% | 0% | 100% | 100% | 0% | 99% | 0% | 0% | 77% | 0% |
| CC(C)Cn1c(C2CCCCC2)c(Cl)nc(-n2cccn2)c1=O [compound 291] | 33% | 0% | 100% | 0% | 88% | 97% | 0% | 71% | 0% | 0% | 0% | 0% |
| CC(C)Cc1c(Cl)nc(-n2cccn2)c(=O)n1CC(C)C [compound 292] | 0% | 0% | 38% | 0% | 27% | 0% | 0% | 74% | 0% | 0% | 0% | 0% |
| Cc1ccn(-c2nc(Cl)c(C3CCCC3)n(CC(C)C)c2=O)n1 [compound 293] | 0% | 0% | 97% | 0% | 88% | 95% | 0% | 0% | 0% | 0% | 0% | 0% |
| Cc1ccn(-c2nc(Cl)c(C3CCCCC3)n(CC(C)C)c2=O)n1 [compound 294] | 0% | 0% | 95% | 0% | 54% | 31% | 0% | 0% | 0% | 0% | 0% | 0% |
| Cc1ccn(-c2nc(Cl)c(CC(C)C)n(CC(C)C)c2=O)n1 [compound 295] | 0% | 0% | 53% | 0% | 27% | 0% | 0% | 0% | 0% | 0% | 0% | 0% |
| CCC(C)Cn1c(-c2c(F)cccc2F)c(Cl)nc(C(=O)NC(C)C)c1=O (stereo not drawn) [compound 296] | 53% | 0% | 100% | 0% | 100% | 100% | 100% | 93% | 85% | 0% | 0% | 93% |
| CCC(C)Cn1c(-c2c(F)cccc2F)c(Cl)nc(C(=O)NCC2CC2)c1=O (stereo not drawn) [compound 300] | 40% | 0% | 100% | 0% | 100% | 100% | 99% | 97% | 0% | 0% | 16% | 93% |
